3 compounds from patent US20230174571A1, “METHOD OF TREATING SHIP1-MEDIATED DISEASES USING PELOROL DERIVATIVES” (Zebrapeutics Inc., priority 2020, published 2023) can be followed below.

Experiment [1] concerns ConA-induced liver injury. The experiment can be described thus: ConA-induced liver injury model. The format is in vivo, mouse. The text has this:
Concanavalin A (ConA) induced liver injury model is an immune-mediated liver injury model, resembling viral and autoimmune hepatitis in humans. Intravenous delivery of ConA in mice is known to activate T cells, resulting in increased inflammatory cytokines such as TNF-α, IFN-r and IL-6 as well as decreased anti-inflammatory cytokine IL-10. The T cell infiltration into the liver leads to consequences of hepatocyte apoptosis and necrosis, resulting in increased levels of liver enzymes ALT and AST in plasma. (Zhou 2015) Methods: Five groups (n=5 each) of C57 mice were treated with a blank control, compound I-1 alone (10 mg/kg/d), ConA (15 mg/kg), ConA+compound I-1 (3 mg/kg/d) or ConA+compound I-1 (10 mg/kg/d). In each instance, compound I-1 was given 5 days before ConA injection (if applicable) via oral gavage twice a day. One hour after the last drug administration, ConA (15 mg/kg) was delivered intravenously. 12 hours after the ConA injection, orbital blood was taken from the eye and the enzyme biochemistry (plasma) and blood cell type tests were performed by analyzers.

In another experiment the target is T1, SHIP1 and STAT3 (Mus musculus, UniProt Q9ES52, Y190F).
T1 construct: expressed in transfected cells; host or cells: J17 (SHIP1-/- mouse BMDM-derived line), lentiviral transduction
T1 sequence (Q9ES52 1-1191 Y190F): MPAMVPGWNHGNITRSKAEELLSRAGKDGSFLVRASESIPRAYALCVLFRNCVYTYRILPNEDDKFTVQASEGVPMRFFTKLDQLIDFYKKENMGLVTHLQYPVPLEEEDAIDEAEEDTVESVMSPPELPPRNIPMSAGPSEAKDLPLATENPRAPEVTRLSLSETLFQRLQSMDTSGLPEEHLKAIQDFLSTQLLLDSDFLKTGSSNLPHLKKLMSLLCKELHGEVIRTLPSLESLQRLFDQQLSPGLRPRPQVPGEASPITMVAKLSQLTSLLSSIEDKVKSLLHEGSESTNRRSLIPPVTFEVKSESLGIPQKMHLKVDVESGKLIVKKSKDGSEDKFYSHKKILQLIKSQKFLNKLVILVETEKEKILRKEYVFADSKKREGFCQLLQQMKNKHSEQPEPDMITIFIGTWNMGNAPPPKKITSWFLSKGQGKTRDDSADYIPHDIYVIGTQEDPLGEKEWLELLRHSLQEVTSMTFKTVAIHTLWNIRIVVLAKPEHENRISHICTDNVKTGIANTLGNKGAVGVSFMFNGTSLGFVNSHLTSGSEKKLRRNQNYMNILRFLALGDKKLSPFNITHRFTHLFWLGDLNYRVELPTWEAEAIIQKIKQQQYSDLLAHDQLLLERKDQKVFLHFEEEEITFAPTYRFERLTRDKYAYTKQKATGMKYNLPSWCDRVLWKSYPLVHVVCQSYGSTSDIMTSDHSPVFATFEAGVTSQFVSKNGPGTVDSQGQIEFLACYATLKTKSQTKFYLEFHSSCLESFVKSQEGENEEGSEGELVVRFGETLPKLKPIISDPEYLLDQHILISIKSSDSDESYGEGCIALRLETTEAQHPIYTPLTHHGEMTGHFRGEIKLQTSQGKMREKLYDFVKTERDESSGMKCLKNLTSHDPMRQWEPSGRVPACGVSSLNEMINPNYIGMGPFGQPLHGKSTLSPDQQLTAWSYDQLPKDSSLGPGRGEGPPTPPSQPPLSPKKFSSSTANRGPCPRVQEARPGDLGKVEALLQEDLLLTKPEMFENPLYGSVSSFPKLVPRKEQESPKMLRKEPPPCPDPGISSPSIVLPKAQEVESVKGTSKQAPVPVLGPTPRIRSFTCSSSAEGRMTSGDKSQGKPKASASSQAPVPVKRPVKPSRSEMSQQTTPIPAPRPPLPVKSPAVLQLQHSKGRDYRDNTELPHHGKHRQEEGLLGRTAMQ
The experiment is described as follows: In vitro pull down assay of His6-SHIP1 with STAT3. The format is cell-based. The conditions noted are these: Y190F vs wild-type SHIP1 cells; 5 minutes stimulation. As to the method:
In vitro pull down assay. J17 His6-SHIP1 and Y190F cells were seeded at 2×10^6 cells per well in a 6-well plate. After overnight incubation, fresh cell media was added for 30 minutes before stimulation with 100 ng/ml IL10, […] or 20 μM compound I-2 for 5 minutes. Cells were lysed with Protein Solubilization Buffer (PSB, 50 mM Hepes, pH 7.5, […], 10 mM Na Pyrophosphate, 2 mM NaVO4, 2 mM Na Molybdate, 2 mM EDTA) containing 1% octylglucoside, 0.01 M imidazole, and protease inhibitor cocktail (Roche Diagnostics, Laval, QC) for 30 minutes at 4° C. and centrifuged at 10000 rpm for 15 minutes. EDTA resistant Ni beads (Roche Diagnostics, Laval, QC) were added to supernatants and the mixture incubated at 4° C. for 1 hour before spinning down and washing of beads three times with 0.1% octylglucoside wash buffer in PSB. Bead samples and starting material cell lysates were separated on a 7.5% SDS-PAGE gel.
Immunoblotting. Protein lysates were separated on SDS-PAGE gels and transferred onto polyvinylidene fluoride (PVDF) membrane (Millipore, Etobicoke, ON). Membranes were blocked and probed, where appropriate, with the following primary antibodies overnight: SHIP1 (P1C1) (Santa Cruz Biotechnology), pSHIP1 (Y190) (Kinexus), STAT3 (9D8) (ThermoFisher Scientific), pSTAT3 (Y705) (Thermo Fisher Scientific), STAT1 (BD Transduction Laboratories), pSTAT1 (Y701) (Upstate Biotechnology), GAPDH and actin (Sigma-Aldrich). Membranes were developed with either Alexa Fluor® 660 anti-mouse IgG or Alexa Fluor® 680 anti-rabbit IgG antibodies (Thermo Fisher Scientific) and imaged using a LI-COR Odyssey Imager.

[2] abbreviates: C57 mice, ConA 15 mg/kg i.v., compound 3 or 10 mg/kg/d oral gavage, 12 hours after ConA.
Where [3] appears, read: repeat experiment, 10 mg/kg/d, dexamethasone 0.5 mg/kg/d as positive control.

For the compound `Cc1cc(O)cc2c1C1(C)CCC3C(C)(C)CCCC3(C)C1C2` (centres unmarked) [Compound I-1], in experiment [1] (setting [2]), the BUN entry is given as “significantly reduced”, the TBIL entry is reported as “significantly reduced”, the “plasma ALT” value is “significantly reduced” and the “plasma AST” value is reported as “significantly reduced”. Also, in experiment [1] (setting [3]), the “ConA-induced ALT level” value is “significantly lowered” and the “ConA-induced AST level” value is on record as “significantly lowered”.

In the case of `CC12CCC3C(C)(C)C(N)CCC3(C)C1Cc1cc(O)cc(O)c12` (centres unmarked) [Compound I-2], the “reduction of Y190F SHIP1 mutant ability to interact with STAT3” value on SHIP1 and STAT3 is on record as 2 fold.

For “IL10: anti-inflammatory cytokine interleukin-10”, in the experiment with SHIP1 and STAT3, the “reduction of Y190F SHIP1 mutant ability to interact with STAT3” value is recorded as 2 fold.
